Earlier results, collected in US9351926B2 (Pharmaceutical Solutions Industry Ltd., priority 2012, dated 2016).

Key:
[1] = children, overdose
[2] = low dose (e.g. 1200 mg daily); epidemiological studies
platelet aggregation = settings: single dose 400 mg within 8 hours before or within 30 minutes after immediate release aspirin (81 mg)

Compound | Bioavailability (in vivo) | Excretion (in vivo) | concentration in breast milk (limited studies) | time of peak serum concentrations after ingestion (oral, empty stomach) [min] | time of peak levels after administration (oral, taken with food) [h] | ingested dose that may cause symptoms [1] | risk of myocardial infarction [2] | effect on the action of aspirin on thromboxane formation or platelet aggregation (platelet aggregation) | interconversion into the active [+]S species (in adults) [%]
CC(C)Cc1ccc(C(C)C(=O)O)cc1 (racemic) [Ibuprofen, (RS)-2-(4-(2-methylpropyl)phenyl) propanoic acid] | 49-73% | Renal | very low concentrations | 45 | 1 to 2 | more than 400 mg/kg | do not suggest that low dose ibuprofen (e.g. 1200 mg daily) is associated with an increased risk of myocardial infarction | decreased effect of aspirin on the formation of thromboxane or platelet aggregation | –
CC(C)Cc1ccc([C@@H](C)C(=O)O)cc1 [HR-form] | – | – | – | – | – | – | – | – | ~60
